Patent US9468213B2, “Herbicide formulation” (Syngenta Crop Protection LLC, priority 2008, dated 2016)

Columns and labels:
[1] = Comparative HPPD stability: decomposition of mesotrione in the formulation acidified by various acids; type: physicochemical
Procedure: The final formulation is prepared by 134.4 grams of the S-metolachlor CS with 22.9 grams of water and under agitation adding 15.2 grams of the mesotrione millbase. This is followed by the addition of 152.7 grams of the Potassium Glyphosate concentrate and then 17.5 grams of the Rhodopol 23 pregel of the previous example. […]

[2] = Stability of mesotrione in chloroacetamides (Example 6, FIG. 1 and FIG. 2); type: physicochemical; details: in chloroacetamides (S-MOC=S-metolachlor)
Procedure: Experiments were conducted to look at the stability of mesotrione in chloroacetamides.

**Q.** Which “Percentage Decomposition of Mesotrione” value ([1]; Gluconic acid, 38 C., 1 MONTH) does the source give for `CS(=O)(=O)c1ccc(C(=O)C2C(=O)CCCC2=O)c([N+](=O)[O-])c1` [Mesotrione, 2-(2′-nitro-4′-methylsulphonylbenzoyl)-1,3-cyclohexanedione] here?
**A.** Its value is 4.30%.

**Q.** What about the “Percentage Decomposition of Mesotrione” value ([1]; Gluconic acid, 38 C., 1 WEEK) of the same compound?
**A.** The value was 1.59%.

**Q.** And the “Percentage Decomposition of Mesotrione” value ([1]; Gluconic acid, 38 C., 2 MONTHS)?
**A.** The value was 7.42%.

**Q.** What about the “Percentage Decomposition of Mesotrione” value ([1]; Gluconic acid, 38 C., 2 WEEKS) of the same compound?
**A.** The value was 1.77%.

**Q.** What about the “Percentage Decomposition of Mesotrione” value ([1]; Gluconic acid, 38 C., 3 MONTHS) of the same compound?
**A.** Its value is 11.23%.

**Q.** And the “Percentage Decomposition of Mesotrione” value ([1]; Gluconic acid, 38 C., 3 WEEKS)?
**A.** Its value is 3.00%.

**Q.** What about the “Percentage Decomposition of Mesotrione” value ([1]; Gluconic acid, 45 C., 1 MONTH) of the same compound?
**A.** The value was 10.22%.

**Q.** And the “Percentage Decomposition of Mesotrione” value ([1]; Gluconic acid, 45 C., 1 WEEK)?
**A.** The value was 1.75%.

**Q.** And the “Percentage Decomposition of Mesotrione” value ([1]; Gluconic acid, 45 C., 2 MONTHS)?
**A.** The value was 23.39%.

**Q.** And the “Percentage Decomposition of Mesotrione” value ([1]; Gluconic acid, 45 C., 2 WEEKS)?
**A.** The value was 4.91%.

**Q.** And the “Percentage Decomposition of Mesotrione” value ([1]; Gluconic acid, 45 C., 3 MONTHS)?
**A.** Its value is 35.81%.

**Q.** What about the “Percentage Decomposition of Mesotrione” value ([1]; Gluconic acid, 45 C., 3 WEEKS) of the same compound?
**A.** Its value is 6.77%.

**Q.** What about the “Percentage Decomposition of Mesotrione” value ([1]; Gluconic acid, 50 C., 1 MONTH) of the same compound?
**A.** Its value is 26.24%.

**Q.** And the “Percentage Decomposition of Mesotrione” value ([1]; Gluconic acid, 50 C., 1 WEEK)?
**A.** The value was 5.91%.

**Q.** And the “Percentage Decomposition of Mesotrione” value ([1]; Gluconic acid, 50 C., 2 MONTHS)?
**A.** Its value is 54.80%.

**Q.** And the “Percentage Decomposition of Mesotrione” value ([1]; Gluconic acid, 50 C., 2 WEEKS)?
**A.** The value was 11.61%.

**Q.** And the “Percentage Decomposition of Mesotrione” value ([1]; Gluconic acid, 50 C., 3 DAYS)?
**A.** The value was 3.26%.

**Q.** What about the “Percentage Decomposition of Mesotrione” value ([1]; Gluconic acid, 50 C., 3 MONTHS) of the same compound?
**A.** The value was 73.08%.

**Q.** And the “Percentage Decomposition of Mesotrione” value ([1]; Gluconic acid, 50 C., 3 WEEKS)?
**A.** Its value is 17.40%.

**Q.** And the “Percentage Decomposition of Mesotrione” value ([1]; Gluconic acid, −18 C., 6 MONTHS)?
**A.** The value was −0.18%.

**Q.** What about the “Percentage Decomposition of Mesotrione” value ([1]; No acid, 38 C., 1 MONTH) of the same compound?
**A.** The value was 17.27%.

**Q.** And the “Percentage Decomposition of Mesotrione” value ([1]; No acid, 38 C., 1 WEEK)?
**A.** The value was 4.63%.

**Q.** And the “Percentage Decomposition of Mesotrione” value ([1]; No acid, 38 C., 2 MONTHS)?
**A.** The value was 25.52%.

**Q.** And the “Percentage Decomposition of Mesotrione” value ([1]; No acid, 38 C., 2 WEEKS)?
**A.** The value was 9.97%.

**Q.** What about the “Percentage Decomposition of Mesotrione” value ([1]; No acid, 38 C., 3 MONTHS) of the same compound?
**A.** The value was 31.02%.

**Q.** And the “Percentage Decomposition of Mesotrione” value ([1]; No acid, 38 C., 3 WEEKS)?
**A.** Its value is 13.05%.

**Q.** And the “Percentage Decomposition of Mesotrione” value ([1]; No acid, 45 C., 1 MONTH)?
**A.** The value was 32.01%.

**Q.** And the “Percentage Decomposition of Mesotrione” value ([1]; No acid, 45 C., 1 WEEK)?
**A.** The value was 11.97%.

**Q.** And the “Percentage Decomposition of Mesotrione” value ([1]; No acid, 45 C., 2 MONTHS)?
**A.** The value was 49.76%.

**Q.** And the “Percentage Decomposition of Mesotrione” value ([1]; No acid, 45 C., 2 WEEKS)?
**A.** Its value is 19.71%.

**Q.** And the “Percentage Decomposition of Mesotrione” value ([1]; No acid, 45 C., 3 MONTHS)?
**A.** Its value is 62.57%.

**Q.** And the “Percentage Decomposition of Mesotrione” value ([1]; No acid, 45 C., 3 WEEKS)?
**A.** The value was 25.71%.

**Q.** And the “Percentage Decomposition of Mesotrione” value ([1]; No acid, 50 C., 1 MONTH)?
**A.** The value was 53.82%.

**Q.** What about the “Percentage Decomposition of Mesotrione” value ([1]; No acid, 50 C., 1 WEEK) of the same compound?
**A.** Its value is 20.39%.

**Q.** What about the “Percentage Decomposition of Mesotrione” value ([1]; No acid, 50 C., 2 MONTHS) of the same compound?
**A.** Its value is 77.94%.

**Q.** What about the “Percentage Decomposition of Mesotrione” value ([1]; No acid, 50 C., 2 WEEKS) of the same compound?
**A.** The value was 35.25%.

**Q.** What about the “Percentage Decomposition of Mesotrione” value ([1]; No acid, 50 C., 3 DAYS) of the same compound?
**A.** The value was 11.30%.

**Q.** And the “Percentage Decomposition of Mesotrione” value ([1]; No acid, 50 C., 3 MONTHS)?
**A.** The value was 88.38%.

**Q.** What about the “Percentage Decomposition of Mesotrione” value ([1]; No acid, 50 C., 3 WEEKS) of the same compound?
**A.** The value was 46.31%.

**Q.** What about the “Percentage Decomposition of Mesotrione” value ([1]; No acid, −18 C., 6 MONTHS) of the same compound?
**A.** Its value is 1.07%.

**Q.** And the “Percentage Decomposition of Mesotrione” value ([1]; Phosphoric acid, 38 C., 1 MONTH)?
**A.** Its value is 3.48%.

**Q.** And the “Percentage Decomposition of Mesotrione” value ([1]; Phosphoric acid, 38 C., 1 WEEK)?
**A.** The value was 1.30%.

**Q.** And the “Percentage Decomposition of Mesotrione” value ([1]; Phosphoric acid, 38 C., 2 MONTHS)?
**A.** Its value is 5.08%.

**Q.** What about the “Percentage Decomposition of Mesotrione” value ([1]; Phosphoric acid, 38 C., 2 WEEKS) of the same compound?
**A.** The value was 1.09%.

**Q.** And the “Percentage Decomposition of Mesotrione” value ([1]; Phosphoric acid, 38 C., 3 MONTHS)?
**A.** Its value is 7.65%.

**Q.** And the “Percentage Decomposition of Mesotrione” value ([1]; Phosphoric acid, 38 C., 3 WEEKS)?
**A.** The value was 1.40%.

**Q.** What about the “Percentage Decomposition of Mesotrione” value ([1]; Phosphoric acid, 45 C., 1 MONTH) of the same compound?
**A.** Its value is 7.12%.

**Q.** What about the “Percentage Decomposition of Mesotrione” value ([1]; Phosphoric acid, 45 C., 1 WEEK) of the same compound?
**A.** The value was 1.87%.

**Q.** And the “Percentage Decomposition of Mesotrione” value ([1]; Phosphoric acid, 45 C., 2 MONTHS)?
**A.** Its value is 14.59%.

**Q.** What about the “Percentage Decomposition of Mesotrione” value ([1]; Phosphoric acid, 45 C., 2 WEEKS) of the same compound?
**A.** The value was 2.43%.

**Q.** What about the “Percentage Decomposition of Mesotrione” value ([1]; Phosphoric acid, 45 C., 3 MONTHS) of the same compound?
**A.** The value was 23.48%.

**Q.** What about the “Percentage Decomposition of Mesotrione” value ([1]; Phosphoric acid, 45 C., 3 WEEKS) of the same compound?
**A.** The value was 3.13%.

**Q.** And the “Percentage Decomposition of Mesotrione” value ([1]; Phosphoric acid, 50 C., 1 MONTH)?
**A.** The value was 16.79%.

**Q.** And the “Percentage Decomposition of Mesotrione” value ([1]; Phosphoric acid, 50 C., 1 WEEK)?
**A.** The value was 2.93%.

**Q.** And the “Percentage Decomposition of Mesotrione” value ([1]; Phosphoric acid, 50 C., 2 MONTHS)?
**A.** Its value is 36.38%.

**Q.** And the “Percentage Decomposition of Mesotrione” value ([1]; Phosphoric acid, 50 C., 2 WEEKS)?
**A.** Its value is 7.09%.

**Q.** What about the “Percentage Decomposition of Mesotrione” value ([1]; Phosphoric acid, 50 C., 3 DAYS) of the same compound?
**A.** Its value is 1.77%.

**Q.** What about the “Percentage Decomposition of Mesotrione” value ([1]; Phosphoric acid, 50 C., 3 MONTHS) of the same compound?
**A.** Its value is 58.11%.

**Q.** What about the “Percentage Decomposition of Mesotrione” value ([1]; Phosphoric acid, 50 C., 3 WEEKS) of the same compound?
**A.** Its value is 10.85%.

**Q.** What about the “Percentage Decomposition of Mesotrione” value ([1]; Phosphoric acid, −18 C., 6 MONTHS) of the same compound?
**A.** Its value is 0.94%.

**Q.** And the “Percentage Decomposition of Mesotrione” value ([1]; Toluene-sulfonic acid, 38 C., 1 MONTH)?
**A.** The value was 2.81%.

**Q.** What about the “Percentage Decomposition of Mesotrione” value ([1]; Toluene-sulfonic acid, 38 C., 1 WEEK) of the same compound?
**A.** Its value is 0.75%.

**Q.** And the “Percentage Decomposition of Mesotrione” value ([1]; Toluene-sulfonic acid, 38 C., 2 MONTHS)?
**A.** The value was 4.00%.

**Q.** And the “Percentage Decomposition of Mesotrione” value ([1]; Toluene-sulfonic acid, 38 C., 2 WEEKS)?
**A.** Its value is 0.78%.

**Q.** What about the “Percentage Decomposition of Mesotrione” value ([1]; Toluene-sulfonic acid, 38 C., 3 MONTHS) of the same compound?
**A.** The value was 2.14%.

**Q.** And the “Percentage Decomposition of Mesotrione” value ([1]; Toluene-sulfonic acid, 38 C., 3 WEEKS)?
**A.** Its value is 1.74%.

**Q.** And the “Percentage Decomposition of Mesotrione” value ([1]; Toluene-sulfonic acid, 45 C., 1 MONTH)?
**A.** Its value is 5.85%.

**Q.** And the “Percentage Decomposition of Mesotrione” value ([1]; Toluene-sulfonic acid, 45 C., 1 WEEK)?
**A.** Its value is 1.64%.

**Q.** And the “Percentage Decomposition of Mesotrione” value ([1]; Toluene-sulfonic acid, 45 C., 2 MONTHS)?
**A.** The value was 11.08%.

**Q.** What about the “Percentage Decomposition of Mesotrione” value ([1]; Toluene-sulfonic acid, 45 C., 2 WEEKS) of the same compound?
**A.** Its value is 3.06%.

**Q.** And the “Percentage Decomposition of Mesotrione” value ([1]; Toluene-sulfonic acid, 45 C., 3 MONTHS)?
**A.** The value was 18.29%.

**Q.** What about the “Percentage Decomposition of Mesotrione” value ([1]; Toluene-sulfonic acid, 45 C., 3 WEEKS) of the same compound?
**A.** Its value is 4.12%.

**Q.** What about the “Percentage Decomposition of Mesotrione” value ([1]; Toluene-sulfonic acid, 50 C., 1 MONTH) of the same compound?
**A.** Its value is 13.91%.

**Q.** And the “Percentage Decomposition of Mesotrione” value ([1]; Toluene-sulfonic acid, 50 C., 1 WEEK)?
**A.** Its value is 2.32%.

**Q.** What about the “Percentage Decomposition of Mesotrione” value ([1]; Toluene-sulfonic acid, 50 C., 2 MONTHS) of the same compound?
**A.** The value was 28.00%.

**Q.** And the “Percentage Decomposition of Mesotrione” value ([1]; Toluene-sulfonic acid, 50 C., 2 WEEKS)?
**A.** The value was 5.94%.

**Q.** And the “Percentage Decomposition of Mesotrione” value ([1]; Toluene-sulfonic acid, 50 C., 3 DAYS)?
**A.** Its value is 2.11%.

**Q.** What about the “Percentage Decomposition of Mesotrione” value ([1]; Toluene-sulfonic acid, 50 C., 3 MONTHS) of the same compound?
**A.** The value was 44.55%.

**Q.** What about the “Percentage Decomposition of Mesotrione” value ([1]; Toluene-sulfonic acid, 50 C., 3 WEEKS) of the same compound?
**A.** Its value is 9.69%.

**Q.** What about the “Percentage Decomposition of Mesotrione” value ([1]; Toluene-sulfonic acid, −18 C., 6 MONTHS) of the same compound?
**A.** The value was 0.05%.

**Q.** And the “stability of mesotrione in chloroacetamides” value [2]?
**A.** The value was “lack of stability”.
